The series in a line: mn = molality of the nth substance listed, in mol/kg. The note with it: 101 kPa, Liquid, Vibrating tube method.

Among the data in the NIST ThermoML archive (doi:10.1021/je300953u) are mass density values, retold here.

Molecules are shown by their SMILES. Numbers after ± are expanded uncertainties.

Broadly, the mass density is the mass of a sample divided by its volume. With `CCn1cc[n+](C)c1.[Br-]` [1-ethyl-3-methylimidazolium bromide] + O, the mass density is given as 998.38 ± 0.29 kg/m3 (298.15 K, m1 = 0.025); 999.96 ± 0.29 kg/m3 (298.15 K, m1 = 0.055); 995.33 ± 0.29 kg/m3 (308.15 K, m1 = 0.025); 996.89 ± 0.29 kg/m3 (308.15 K, m1 = 0.055).
